The conditions of series [1]: cited from earlier work; for Highest water content: water content varies in different conditions.
Series [2] in a line: Intrinsic dissolution rate in pH 2.5 HCl/NaCl aqueous solution. The series is classed as physicochemical. The note with it: for Cumulative dissolution / IDR (intrinsic dissolution rate): pH 2.5 HCl/NaCl, 37° C.; for Cumulative dissolution: 0.5 cm^2 pellet; for IDR (intrinsic dissolution rate): slope over 0-45 minutes. The procedure:
Approximately 200 mg of Form A and Form I in WO2017002095A1 were added into the die, compressed at 10 kN and held for 1 minute to obtain a pellet having a surface area of 0.5 cm^2. The whole tool with the pellet was transferred to a dissolution apparatus to test the intrinsic dissolution rate. The slope (mg/min) was calculated according to the data within 0-45 minutes. Intrinsic dissolution rate (IDR, mg/min/cm^2) was further calculated according to the slope.
Approximately 200 mg of Form D and Form I in WO2017002095A1 were added into the die, compressed at 10 kN and held for 1 minute to obtain a pellet having a surface area of 0.5 cm^2. The whole tool with the pellet was transferred to a dissolution apparatus to test the intrinsic dissolution rate. The slope (mg/min) was calculated according to the data within 0-45 minutes. Intrinsic dissolution rate (IDR, mg/min/cm^2) was further calculated according to the slope.
Approximately 200 mg of Form F and Form I in WO2017002095A1 were added into the die, compressed at 10 kN and held for 1 minute to obtain a pellet having a surface area of 0.5 cm^2. The whole tool with the pellet was transferred to a dissolution apparatus to test the intrinsic dissolution. The slope (mg/min) was calculated according to the data within 0-45 minutes. Intrinsic dissolution rate (IDR, mg/min/cm^2) was further calculated according to the slope.
Approximately 200 mg of Form G and Form I in WO2017002095A1 were added into the die, compressed at 10 kN and held for 1 minute to obtain a pellet having a surface area of 0.5 cm^2. The whole tool with the pellet was transferred to a dissolution apparatus to test the intrinsic dissolution. The slope (mg/min) was calculated according to the data within 0-45 minutes. Intrinsic dissolution rate (IDR, mg/min/cm^2) was further calculated according to the slope.
Approximately 200 mg of Form CS15 and Form I in WO2017002095A1 were added into the die, compressed at 10 kN and held for 1 minute to obtain a pellet having a surface area of 0.5 cm^2. The whole tool with the pellet was transferred to a dissolution apparatus to test the intrinsic dissolution. The slope (mg/min) was calculated according to the data within 0-45 minutes. Intrinsic dissolution rate (IDR, mg/min/cm^2) was further calculated according to the slope.

Series [3] can be described thus: Compressibility (tensile strength of compressed tablet). Conditions: about 80 mg, φ6 mm round tooling, compressed at 10 kN. The series is classed as physicochemical. On the procedure:
Approximately 80 mg of Form A and Form I in WO2017002095A1 were weighed into the dies of a φ6 mm round tooling, compressed at 10 kN manually, then stored in a desiccator for 24 hours until complete elastic recovery. Radial crushing force (hardness, H) was tested with an intelligent tablet hardness tester. Diameter (D) and thickness (L) were tested with a caliper. Tensile strength of the powder that with different hardness was calculated with the following formula: T=2H/πDL. Under a certain force, the greater the tensile strength, the better the compressibility.
Approximately 80 mg of Form D and Form I in WO2017002095A1 were weighed into the dies of a φ6 mm round tooling, compressed at 10 kN manually, and then stored in a desiccator for 24 hours until complete elastic recovery. Radial crushing force (hardness, H) was tested with an intelligent tablet hardness tester. Diameter (D) and thickness (L) were tested with a caliper. Tensile strength of the powder with different hardness was calculated with the following formula: T=2H/πDL. Under a certain force, the greater the tensile strength, the better the compressibility.
Approximately 80 mg of Form F and Form I in WO2017002095A1 were weighed into the dies of a φ6 mm round tooling, compressed at 10 kN manually, and then stored in a desiccator for 24 hours until complete elastic recovery. Radial crushing force (hardness, H) was tested with an intelligent tablet hardness tester. Diameter (D) and thickness (L) were tested with caliper. Tensile strength of the powder with different hardness was calculated with the following formula: T=2H/πDL. Under a certain force, the greater the tensile strength, the better the compressibility.
Approximately 80 mg of Form G and Form I of WO2017002095A1 were weighed into the dies of a φ6 mm round tooling, compressed at 10 kN manually, and then stored in a desiccator for 24 hours until complete elastic recovery. Radial crushing force (hardness, H)) was tested with an intelligent tablet hardness tester. Diameter (D) and thickness (L) were tested with caliper. Tensile strength of the powder with different hardness was calculated with the following formula: T=2H/πDL. Under a certain force, the greater the tensile strength, the better the compressibility.
Approximately 80 mg of Form CS15 and Form I in WO2017002095A1 were weighed into the dies of a φ6 mm round tooling, compressed at 10 kN manually, and then stored in a desiccator for 24 hours until complete elastic recovery. Radial crushing force (hardness, H) was tested with an intelligent tablet hardness tester. Diameter (D) and thickness (L) were tested with caliper. Tensile strength of the powder with different hardness was calculated with the following formula: T=2H/πDL. Under a certain force, the greater the tensile strength, the better the compressibility.

Series [4] in a line: Stability of crystalline form on storage, checked by XRPD. The series is classed as physicochemical. The note with it: for Solid form: 2 months, XRPD. The procedure:
Approximately 10 mg of Form A of the present disclosure was weighed and stored at different conditions of 25° C./60% RH in open dish, 25° C./60% RH in closed dish, 40° C./75% RH in open dish, and 40° C./75% RH in closed dish. Crystalline forms were checked by XRPD.
Approximately 10 mg of Form D of the present disclosure was weighed and stored at different conditions of 25° C./60% RH in closed dish, 25° C./60% RH in open dish, 40° C./75% RH in closed dish. Crystalline form was checked by XRPD.
Approximately 10 mg of Form F of the present disclosure was weighed and stored at different conditions of 25° C./60% RH in closed dish, 25° C./60% RH in open dish, and 40° C./75% RH in closed dish, 40° C./75% RH in open dish. Crystalline forms were checked by XRPD.
Approximately 10 mg of Form G of the present disclosure was weighed and stored at 25° C./60% RH in closed dish. Crystalline forms were checked by XRPD.
Approximately 10 mg of Form CS15 of the present disclosure was weighed and stored at different conditions of 25° C./60% RH in open dish, 25° C./60% RH in closed dish. Crystalline forms were checked by XRPD.

Series [5] in a line: Adhesiveness (amount of material sticking to the punch). Type of series: physicochemical. Conditions: about 30 mg, φ8 mm round tooling, 10 kN, compression repeated twice. On the procedure:
Approximately 30 mg of Form A and Form I in WO2017002095A1 were weighed, added into the dies of a φ8 mm round tooling, compressed at 10 kN and held for about 30 s. The amount of material sticking to the punch was weighed. The compression was repeated twice and the cumulative amount and average amount of material sticking to the punch during the compression were recorded.
Approximately 30 mg of Form F and Form I in WO2017002095A1 were weighed, added into the dies of a φ8 mm round tooling, compressed at 10 kN and held for about 30 s. The amount of material sticking to the punch was weighed. The compression was repeated twice and the cumulative amount and average amount of material sticking to the punch during the compression were recorded.
Approximately 30 mg of Form G and Form I in WO2017002095A1 were weighed, added into the dies of a φ8 mm round tooling, compressed at 10 kN and held for about 30 s. The amount of material sticking to the punch was weighed. The compression was repeated twice and the cumulative amount and average amount of material sticking to the punch during the compression were recorded.

Molecules are shown by their SMILES.

As to `CC#CC(=O)N1CCC[C@H]1c1nc(-c2ccc(C(=O)Nc3ccccn3)cc2)c2c(N)nccn12` [Crystalline form II, (S)-4-(8-amino-3-(1-(but-2-ynoyl)pyrrolidin-2-yl)imidazo[1,5-a]pyrazin-1-yl)-N-(pyridin-2-yl)benzamide], the Flowability result in series [1] (as disclosed in WO2017002095A1) was “poor”. Moreover, in series [1], the Highest water content was 10%.

For the molecule `CC#CC(=O)N1CCC[C@H]1c1nc(-c2ccc(C(=O)Nc3ccccn3)cc2)c2c(N)nccn12` [Crystalline form III, (S)-4-(8-amino-3-(1-(but-2-ynoyl)pyrrolidin-2-yl)imidazo[1,5-a]pyrazin-1-yl)-N-(pyridin-2-yl)benzamide], in series [1] (as disclosed in WO2017002095A1), the “Stability of the crystalline form” value was “unstable”. Besides, in series [1], the Highest water content is 8%.

Consider `CC#CC(=O)N1CCC[C@H]1c1nc(-c2ccc(C(=O)Nc3ccccn3)cc2)c2c(N)nccn12` [Crystalline form IV, (S)-4-(8-amino-3-(1-(but-2-ynoyl)pyrrolidin-2-yl)imidazo[1,5-a]pyrazin-1-yl)-N-(pyridin-2-yl)benzamide], for which the “Stability of the crystalline form” value in series [1] (as disclosed in WO2017002095A1) is reported as “unstable”.

Turning to `CC#CC(=O)N1CCC[C@H]1c1nc(-c2ccc(C(=O)Nc3ccccn3)cc2)c2c(N)nccn12` [Form D, (S)-4-(8-amino-3-(1-(but-2-ynoyl)pyrrolidin-2-yl)imidazo[1,5-a]pyrazin-1-yl)-N-(pyridin-2-yl)benzamide], the Cumulative dissolution is given as 0.00 mg in series [2] (0 min); 0.70 mg in series [2] (5 min); 1.73 mg in series [2] (10 min); 2.82 mg in series [2] (15 min); 3.57 mg in series [2] (20 min); 4.77 mg in series [2] (25 min). In addition, the results for the Cumulative dissolution in series [2] (30 min), in series [2] (35 min) and in series [2] (45 min) were 6.26 mg, 7.36 mg and 9.72 mg, respectively. Also, the “IDR relative to that of Form I in WO2017002095A1” value in series [2] (pH 2.5 HCl/NaCl solution) was 1.1 times. The “IDR (intrinsic dissolution rate)” value in series [2] amounted to 0.4112 mg/min/cm^2. The same molecule displayed a Tensile strength in series [3] of 0.83 MPa. Besides, the “Time kept stable (crystalline state doesn't change)” value in series [4] (25° C./60% RH in closed dish), in series [4] (25° C./60% RH in open dish) and in series [4] (40° C./75% RH in closed dish) was “at least 2 months” in each case. Besides, the Solid form entry in series [4] (25° C./60% RH in closed dish), in series [4] (25° C./60% RH in open dish) and in series [4] (40° C./75% RH in closed dish) was “Form D” each time. Further, the “Chemical purity on storage” value in series [4] (25° C./60% RH in open and closed dishes, at least 2 months) was “remains substantially unchanged”.

Regarding `CC#CC(=O)N1CCC[C@H]1c1nc(-c2ccc(C(=O)Nc3ccccn3)cc2)c2c(N)nccn12` [Form I in WO2017002095A1, (S)-4-(8-amino-3-(1-(but-2-ynoyl)pyrrolidin-2-yl)imidazo[1,5-a]pyrazin-1-yl)-N-(pyridin-2-yl)benzamide, reference compound], the Cumulative dissolution in series [2] (0 min) worked out at 0.00 mg; in series [2] (5 min), 0.92 mg; in series [2] (10 min) it was 1.64 mg; in series [2] (15 min), 2.81 mg; in series [2] (20 min), 3.66 mg; in series [2] (25 min), 4.62 mg. Further, the Cumulative dissolution is given as 5.58 mg in series [2] (30 min), 6.40 mg in series [2] (35 min) and 8.16 mg in series [2] (45 min). Moreover, the “IDR (intrinsic dissolution rate)” value in series [2] came out at 0.3656 mg/min/cm^2. In addition, the “Average amount (material sticking to the punch)” value in series [5] came to 45 µg. Also, the “Cumulative amount (material sticking to the punch)” value in series [5] was found to be 90 µg. Besides, the Tensile strength entry in series [3] is “Unable to be compressed”.
